# Measurements taken from patent US20180214440A1, “ORAL COMPOSITION” (HELPERBY THERAPEUTICS LIMITED, priority 2015, published 2018).
# Test system: log phase S. aureus
# Assay: Time-kill studies for 240 minutes, Example 3
# Format: cell-based
# Conditions: alone at 0.01% w/v, FIG. 6
# Protocol: FIGS. 4, 5 and 6 contain the results of the time-kill studies then carried out against log phase S. aureus for 240 minutes (4 hours).
# These formulations included chlorhexidine digluconate at either 0.06% w/v, 0.04% w/v, 0.03% w/v or 0.015% w/v.
# Corsodyl® Daily Defence mouthwash 0.06% is a commercially available product manufactured by GlaxoSmithKline which contains 0.06% w/v chlorhexidine digluconate.
# The time to zero values for each of the FIGS. 4 to 6 are shown below in Table 4.
smiles,measurement,value
"Cc1nc2ccc(Oc3ccccc3)cc2c2c1CCN2CCc1ccccc1 [HT61, 4-methyl-8-phenoxy-1-(2-phenylethyl)-2,3-dihydro-1H-pyrrolo[3,2-c]quinoline]",antimicrobial activity against log phase S. aureus,does not have significant antimicrobial activity
